Assays:
[1] = molecular target: T1, SGK1 (Homo sapiens, UniProt O00141); experiment: SGK1 target engagement: Western blot of SGK1 phosphorylation at Thr256 in CD34+ cells; assay type: cell-based; conditions: CD34+ cells from a healthy donor, day 11 of differentiation, 1h after exposure (FIG. 5)
T1 construct: endogenous in cells; host or cells: Mobilized human CD34+ HSPC from a healthy donor, day 11 of erythroid differentiation
T1 sequence (O00141 1-431): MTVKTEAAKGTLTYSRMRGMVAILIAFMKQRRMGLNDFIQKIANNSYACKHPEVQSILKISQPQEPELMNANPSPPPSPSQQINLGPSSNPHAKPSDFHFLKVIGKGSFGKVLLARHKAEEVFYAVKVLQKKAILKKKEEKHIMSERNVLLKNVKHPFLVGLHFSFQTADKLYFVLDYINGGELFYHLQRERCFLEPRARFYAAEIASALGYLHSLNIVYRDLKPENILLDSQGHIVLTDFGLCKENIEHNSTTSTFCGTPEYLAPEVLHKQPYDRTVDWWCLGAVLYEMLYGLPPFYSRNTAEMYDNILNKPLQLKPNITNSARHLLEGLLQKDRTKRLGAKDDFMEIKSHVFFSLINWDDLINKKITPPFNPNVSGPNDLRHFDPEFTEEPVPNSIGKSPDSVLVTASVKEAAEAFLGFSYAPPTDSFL
Protocol: (§1) To verify SGK1 target engagement by Compound 346, CD34+ cells from a healthy donor were exposed to Compound 346 at the indicated dose (µM), harvested and lysed at the indicated time points. Phosphorylation of SGK1 at threonine 256 (Thr256) was assessed by Western blot using antibody anti-pSGK1 (Thr256) (Thermofisher) and anti-SGK1 (Cell Signaling). Human CD34+ cells, cells were collected on Day 11 of differentiation then exposed to Compound 346. According to the time course, cells were collected and lysed using RIPA buffer mixed with a phosphatase and protease inhibitors cocktail (Thermofisher). Sample protein concentrations were measured with the Pierce […] (ThermoFisher). The α-tubulin antibody (Cell Signaling) served as an internal control. Immunoreactive proteins were visualized by using an ECL® (enhanced chemiluminescence) detection system (BioRad). Optical density was measured with ImageJ software (National Institutes of Health, Bethesda, MD) and the ratio of phospho-SGK1 to total SGK1 was calculated, normalized on α-tubulin, and plotted based on the densitometry measurements. […] Furthermore, SGK1 downstream pathway activation was verified by measuring phosphorylation of FOXO3 at Serine 315, a direct target of activated SGK1. Quantification of FOXO3 activation was assessed by Western Blot using antibodies anti-pFOXO3 (Ser315) and anti-FOXO3 (Cell Signaling). […]

[2] = system: human CD34+ cells; conditions: for F-cell (HbF+) frequency in enucleated GlyA+ cells / fold change in fetal hemoglobin expression: 14 days of differentiation; for F-cell (HbF+) frequency in enucleated GlyA+ cells: compared to control (DMSO) (FIG. 3A); for fold change in fetal hemoglobin expression: human CD34+ cells, compared to control (Vehicle as DMSO) (FIG. 3B)
Protocol: Mobilized CD34+ Human Stem/Progenitor Cells (HSPC) from healthy individuals were cultured for 3 days in a maintenance media consisting of X-VIVO 10 (VWR), 100 U/mL penicillin-streptomycin (ThermoFisher), 2mM L-glutamine (Fisher Scientific), 100 ng/mL Recombinant Human Stem Cell Factor (SCF), 100 ng/mL Recombinant Human Thrombopoietin (TPO) and 100 ng/mL Recombinant Human Flt-3 Ligand (Flt-3L) (all three from ThermoFisher). Cells were differentiated into erythroid cells using a three-step differentiation protocol developed by the Luc Douay group (Giarratana et al. 2005). In brief, CD34+ cells were cultured for 7 days in Step 1 media, consisting of Iscove's modified Dulbecco's medium (IMDM) (ThermoFisher) supplemented with 1X GlutaMAX, 100 U/mL penicillin-streptomycin (ThermoFisher), 5% human AB+plasma, 330 ug/mL human holo-transferrin, 10 ug/mL human insulin, 2 U/mL heparin, 1 uM/mL hydrocortisone (Sigma-Aldrich), 3 U/mL recombinant human erythropoietin (EPO) (ThermoFisher), 100 ng/mL SCF (ThermoFisher) and 5 ng/mL interleukin 3 (IL-3) (SigmaAldrich). On day 7, cells were transferred to step 2 media, a step 1 media without hydrocortisone and IL-3 and cultured for 3-4 days. Then cells were cultured for 8-9 days in step 3 media, a step 2 media without SCF. […] To determine the percentage of HbF-positive cells (F-cells), differentiated cells were fixed and permeabilized using a fixation kit (ThermoFisher). Cells were stained with PE-Cy7-conjugated anti-CD235 or PE-conjugated anti-CD71 antibodies. HbF levels were detected using Allophycocyanin (APC)-conjugated anti-HbF antibody (ThermoFisher). The acquisition of stained cells was performed on BD FACSCanto™ and the analysis was run using FlowJo™ Software.
After 14 days of differentiation, cells were fixed and stained with CD235a, CD71 and fetal hemoglobin antibodies for flowcytometry analysis.

[3] = system: FOXO3; experiment: SGK1 downstream pathway: Western blot of FOXO3 phosphorylation at Serine 315 in CD34+ cells; assay type: cell-based, human; conditions: CD34+ cells from a healthy donor, day 11 of differentiation, 1-hour time point, densitometry (FIG. 5)
Protocol: as §1

[4] = system: sickle erythroid cells; experiment: Sickling assay under hypoxia (ImageStream flow cytometry) of 21-day differentiated erythroid cells; assay type: cell-based, human; conditions: cells derived from CD34+ cells of sickle patients, 21 days of differentiation, 4 hours at 2% oxygen, compared to vehicle, p < 0.01 (FIG. 6)
Protocol: To evaluate the effect of Compound 346 in sickle erythroid cells sickling, a sickling assay was conducted. […] Purified CD34+ cells were differentiated for 21 days. At the end of the differentiation, cells were incubated for 4 hours at 2% of oxygen in Hemox Buffer (Fisher Scientific) supplemented with 10mM Glutamine (Gibco) and 0.5% BSA (Sigma Aldrich). After exposure to hypoxia, cells were fixed with 25% of glutaraldehyde (Sigma Aldrich) and transferred to tubes for flowcytometry analysis, using a Amnis® ImageStream® flow cytometer to assess abnormal shaped cells. Cells were determined using RMS of brightfield image, and single cells using Area vs Aspect Ratio of brightfield image, and live cells were identified using a Live Dead NIR stain. Single living cells were analyzed using the following masking of the brightfield image: Skeleton (M1, Ch1, Thin), Object (M1, Ch1, Tight). Finally, the sickling factor was calculated using the following feature: Length_Skeleton (M1, CH1, Thin)/Width_(M1, Ch1, Tight). Cells with a sickle factor feature of 1.4 or higher were sickled. Cells with a sickle factor feature less than 1.4 were not sickled.

[5] = system: CD34+ cells from patients with sickle cell disease; conditions: for F-cell (HbF+) frequency in enucleated GlyA+ cells: CD34+ cells from patients with sickle cell disease, compared to control (DMSO) (FIG. 4A)
Source text: To measure the effect of Compound 346 on fetal hemoglobin induction in CD34+ cells from patients with sickle cell disease, circulating CD34+ progenitor cells were isolated from total blood obtained from sickle cell patients, by performing a positive selection for CD34+ cells with magnetic beads (Miltenyi Biotec). Purified CD34+ cells were differentiated for 14 days. After differentiation, cells were fixed and stained with CD235a, CD71 and fetal hemoglobin antibodies for flowcytometry analysis.

[6] = CD34+ HSPC from healthy individuals

Row | SMILES | p-SGK1 (Thr256), ratio of phospho-SGK1 to total SGK1 [1] | F-cell (HbF+) frequency in enucleated GlyA+ cells [2, 6] | increase of HbF+ cells (HbF+ fold change to control) ([2]; CD34+ HSPC from healthy individuals, 21 days of differentiation, compared to DMSO (FIG. 2B)) | frequency of F-cells (HbF+) ([2]; CD34+ HSPC from healthy individuals, 21 days of differentiation, compared to vehicle (DMSO) (FIG. 2A)) | fold change in fetal hemoglobin expression [2] | phosphorylation of FOXO3 at Serine 315 [3] | sickling of erythroid cells induced by hypoxia [4] | F-cell (HbF+) frequency in enucleated GlyA+ cells [5] | HbF+ fold change to control ([5]; CD34+ cells from sickle cell patients, 14 days of differentiation, compared to control (Vehicle as DMSO) (FIG. 4B))
1 | Cc1n[nH]c2nc(-c3ccc(NS(=O)(=O)c4cc(Cl)ccc4F)cc3)nc(OC3CCN(C(C)C)CC3)c12 [Compound 346] | decrease | increases | about 1.5 fold | increased | 1,5 fold | decrease | significantly protected from sickling | increasing | 1.5 fold
2 | NC(=O)NO [Hydroxyurea, hydroxyurea, reference compound] | – | increases | – | – | 1,5 fold | – | – | increase | –
